According to ChEMBL document CHEMBL1201862, “PubChem BioAssay data set” (2004):
Active and inactive are the calls of the source.

Legend:
BJ [1] = experiment: BJ-TERT fibroblast viability loss – cell-based, RAS-independent, luminescence, dose response (AID 1933); assay type: functional; settings: Homo sapiens
[2] = cytotoxicity toward MDA-MB-231 breast cancer cells – cell-based, CellTiter-Glo luminescence, cherry-pick, cytotoxicity control for RAD54 inhibitor project, dose response (AID 651692); assay type: functional
[3] = alpha-synuclein stem-loop luciferase translation blockers – H4 neuroglioma cells, luminescence, confirmation (AID 1988); assay type: functional, cell-based
BJ [4] = experiment: BJ-TERT-LT-ST fibroblast viability loss – cell-based, RAS-independent, luminescence, dose response (AID 1935); assay type: functional; settings: Homo sapiens;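 note: BJ fibroblasts immortalized with TERT plus LT and ST oncogenes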
[5] = general cell-killing toxicity readout – plate reader, dry powder samples, cytotoxicity control for PAX8 inhibitor project, dose response (AID 743021); assay type: functional, cell-based
BJ [6] = experiment: growth inhibition of engineered Ras-driven BJ cells – cell-based, alamar blue fluorescence, cherrypicked samples, dose response (AID 2631); assay type: functional; settings: Homo sapiens;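 note: confirmatory dose-response assay in RAS-dependent BJ fibroblasts engineered with TERT, LT and ST, with cytotoxicity read by fluorescence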
[7] = luciferase reporter signal suppression in cells – H4 neuroglioma cells, luminescence, dose response (AID 1990); assay type: functional, cell-based
[8] = molecular target: G-protein coupled receptor 55 (Homo sapiens, UniProt Q9Y2T6); experiment: inhibition of LPI-stimulated GPR55 beta-arrestin translocation – imaging, U2OS, beta-arrestin-GFP, LPI agonist, primary screen (AID 2013); assay type: functional;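 note: antagonist potency measured as reduced agonist-driven arrestin aggregation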
[9] = molecular target: T1, DNA repair and recombination protein RAD54-like (Homo sapiens, UniProt Q92698); experiment: RAD54 Holliday junction migration blockers – biochemical, fluorescence, cherry-picked samples, dose series, confirmation (AID 651657); assay type: functional
T1 sequence (Q92698 whole entry): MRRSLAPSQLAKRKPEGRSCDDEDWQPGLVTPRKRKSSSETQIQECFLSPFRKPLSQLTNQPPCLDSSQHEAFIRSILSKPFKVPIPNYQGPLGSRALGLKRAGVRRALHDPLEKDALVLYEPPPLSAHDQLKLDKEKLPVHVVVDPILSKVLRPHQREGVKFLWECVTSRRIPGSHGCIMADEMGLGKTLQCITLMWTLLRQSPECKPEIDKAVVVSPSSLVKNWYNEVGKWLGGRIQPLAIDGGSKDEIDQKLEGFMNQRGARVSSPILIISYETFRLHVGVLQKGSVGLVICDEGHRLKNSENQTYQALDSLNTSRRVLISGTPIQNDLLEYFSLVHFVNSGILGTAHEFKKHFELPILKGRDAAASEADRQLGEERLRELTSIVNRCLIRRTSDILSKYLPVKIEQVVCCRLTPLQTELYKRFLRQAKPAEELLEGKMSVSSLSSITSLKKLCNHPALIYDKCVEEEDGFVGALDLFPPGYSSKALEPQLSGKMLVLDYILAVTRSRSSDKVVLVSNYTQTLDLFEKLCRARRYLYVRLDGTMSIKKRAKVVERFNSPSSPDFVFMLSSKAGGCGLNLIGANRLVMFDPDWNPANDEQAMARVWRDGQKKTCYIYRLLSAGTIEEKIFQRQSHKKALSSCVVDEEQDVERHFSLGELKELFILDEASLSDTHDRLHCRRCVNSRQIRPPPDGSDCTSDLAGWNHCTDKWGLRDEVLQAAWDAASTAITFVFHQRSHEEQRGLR

[10] = molecular target: T2, Ubiquitin-conjugating enzyme E2 N (Homo sapiens, UniProt P61088); assay type: functional;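 note: Dose-response confirmation in a TR-FRET assay detecting UBC13-driven polyubiquitin chain formation, inhibition measured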
T2 sequence (P61088 whole entry): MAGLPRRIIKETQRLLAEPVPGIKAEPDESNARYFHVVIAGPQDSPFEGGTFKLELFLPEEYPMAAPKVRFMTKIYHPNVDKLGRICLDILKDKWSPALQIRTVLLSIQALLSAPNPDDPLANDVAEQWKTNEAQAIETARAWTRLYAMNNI

[11] = DRD fibroblast viability loss – cell-based, non-viral oncogenic, luminescence, dose response (AID 1934); assay type: functional; settings: Homo sapiens
[12] = molecular target: T3, Heat shock factor protein 1 (Mus musculus, UniProt P38532); experiment: decrease of HSF1-responsive luciferase luminescence – cell-based, NIH3T3, dose retest, confirmation (AID 2382); assay type: functional;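 note: NIH3T3 fibroblasts with HSF1-driven luciferase reporter stressed by proteasome inhibitor MG132; luminescence from HSF1-driven luciferase expression after 8 hours of MG132 stress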
T3 sequence (P38532 whole entry): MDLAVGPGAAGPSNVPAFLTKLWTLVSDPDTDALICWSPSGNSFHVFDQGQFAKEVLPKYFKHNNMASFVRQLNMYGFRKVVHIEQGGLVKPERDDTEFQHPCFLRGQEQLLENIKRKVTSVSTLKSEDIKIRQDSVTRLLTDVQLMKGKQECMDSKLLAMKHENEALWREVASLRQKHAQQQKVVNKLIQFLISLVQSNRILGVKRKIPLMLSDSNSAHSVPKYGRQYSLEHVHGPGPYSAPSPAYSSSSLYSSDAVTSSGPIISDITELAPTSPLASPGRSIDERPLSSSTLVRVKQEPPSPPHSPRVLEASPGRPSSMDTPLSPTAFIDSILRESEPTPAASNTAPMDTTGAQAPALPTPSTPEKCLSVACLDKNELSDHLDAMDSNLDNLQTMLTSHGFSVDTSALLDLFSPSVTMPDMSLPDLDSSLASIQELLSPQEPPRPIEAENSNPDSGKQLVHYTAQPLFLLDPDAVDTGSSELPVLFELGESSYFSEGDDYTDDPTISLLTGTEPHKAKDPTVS

Paired box protein Pax-8 = Paired box protein Pax-8 (Homo sapiens, UniProt Q06710); experiment: PAX8 transcriptional activity inhibition in RMG-I – RMG-I cells, luciferase, cherry-pick, dose response (AID 687027); assay type: functional, cell-based;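 note: luciferase reporter driven by Pax8 target thyroperoxidase promoter measured by SteadyGlo luminescence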
[13] = molecular target: DNA repair protein RAD52 homolog (Homo sapiens, UniProt P43351); assay type: functional, biochemical
BJ [14] = experiment: cells; assay type: functional, cell-based; settings: Homo sapiens
[15] = activation of miR-122 Renilla sensor silencing – cell-based, Huh7 psiCHECK-miR122, Renilla luciferase, cherry-picked, dose response (AID 651956); assay type: functional;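 note: huh7 hepatoma cells stably carrying a psiCHECK-2 miR-122 sensor plasmid; renilla luciferase signal reporting endogenous miR-122 activity after 48 h compound exposure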
[16] = molecular target: T4, Sentrin-specific protease 1 (Homo sapiens, UniProt Q9P0U3); experiment: SENP1 catalytic domain blockers, concentration series – biochemical, kinetic FRET, dose response (AID 651697); assay type: functional; settings: read-out: IC50_Mean
[17] = molecular target: T4, Sentrin-specific protease 1; experiment: Dose response confirmation of small molecule inhibitors of the catalytic domain of the SUMO protease, SENP1 in a FRET assay.; assay type: functional; settings: read-out: IC50_Mean

T4 sequence (Q9P0U3 whole entry, the tested form may be a part): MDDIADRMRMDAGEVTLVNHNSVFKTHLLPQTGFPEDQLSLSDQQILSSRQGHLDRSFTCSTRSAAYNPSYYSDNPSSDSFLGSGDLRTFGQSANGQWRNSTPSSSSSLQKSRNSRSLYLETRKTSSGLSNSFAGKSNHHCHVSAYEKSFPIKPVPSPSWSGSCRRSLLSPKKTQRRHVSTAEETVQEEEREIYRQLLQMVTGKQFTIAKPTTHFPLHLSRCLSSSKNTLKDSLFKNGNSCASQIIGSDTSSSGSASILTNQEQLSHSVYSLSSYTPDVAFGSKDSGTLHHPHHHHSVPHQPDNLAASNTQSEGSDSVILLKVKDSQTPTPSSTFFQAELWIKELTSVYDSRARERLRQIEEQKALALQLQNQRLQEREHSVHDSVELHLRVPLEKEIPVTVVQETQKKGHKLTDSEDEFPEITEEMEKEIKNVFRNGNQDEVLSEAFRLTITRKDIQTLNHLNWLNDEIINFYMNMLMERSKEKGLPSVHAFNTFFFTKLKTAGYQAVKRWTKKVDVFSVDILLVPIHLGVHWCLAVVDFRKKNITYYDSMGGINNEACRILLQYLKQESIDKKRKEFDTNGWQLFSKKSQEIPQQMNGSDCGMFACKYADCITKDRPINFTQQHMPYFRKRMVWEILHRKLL
Chain of G-protein coupled receptor 55 (Q9Y2T6 whole entry): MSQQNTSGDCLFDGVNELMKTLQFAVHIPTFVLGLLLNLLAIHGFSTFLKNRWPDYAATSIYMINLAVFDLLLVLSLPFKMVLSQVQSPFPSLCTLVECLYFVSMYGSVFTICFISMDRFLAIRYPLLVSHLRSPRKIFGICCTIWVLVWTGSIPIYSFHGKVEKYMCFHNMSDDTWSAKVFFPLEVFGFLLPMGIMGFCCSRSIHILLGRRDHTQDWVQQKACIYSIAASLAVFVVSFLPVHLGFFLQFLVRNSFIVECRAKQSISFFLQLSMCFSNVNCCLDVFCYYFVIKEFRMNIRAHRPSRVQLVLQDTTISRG
Chain of DNA repair protein RAD52 homolog (P43351 whole entry): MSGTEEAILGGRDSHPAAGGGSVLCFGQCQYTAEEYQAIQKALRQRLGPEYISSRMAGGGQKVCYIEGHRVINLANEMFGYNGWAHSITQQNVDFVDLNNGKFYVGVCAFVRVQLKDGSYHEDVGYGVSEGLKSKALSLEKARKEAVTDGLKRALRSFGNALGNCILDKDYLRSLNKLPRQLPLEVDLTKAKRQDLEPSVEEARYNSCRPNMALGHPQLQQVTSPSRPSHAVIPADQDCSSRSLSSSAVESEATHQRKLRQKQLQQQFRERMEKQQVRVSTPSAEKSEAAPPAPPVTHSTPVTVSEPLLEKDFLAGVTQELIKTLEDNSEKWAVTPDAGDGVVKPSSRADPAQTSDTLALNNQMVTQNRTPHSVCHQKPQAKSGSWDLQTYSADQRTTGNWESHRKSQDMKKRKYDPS
Chain of Paired box protein Pax-8 (Q06710 whole entry): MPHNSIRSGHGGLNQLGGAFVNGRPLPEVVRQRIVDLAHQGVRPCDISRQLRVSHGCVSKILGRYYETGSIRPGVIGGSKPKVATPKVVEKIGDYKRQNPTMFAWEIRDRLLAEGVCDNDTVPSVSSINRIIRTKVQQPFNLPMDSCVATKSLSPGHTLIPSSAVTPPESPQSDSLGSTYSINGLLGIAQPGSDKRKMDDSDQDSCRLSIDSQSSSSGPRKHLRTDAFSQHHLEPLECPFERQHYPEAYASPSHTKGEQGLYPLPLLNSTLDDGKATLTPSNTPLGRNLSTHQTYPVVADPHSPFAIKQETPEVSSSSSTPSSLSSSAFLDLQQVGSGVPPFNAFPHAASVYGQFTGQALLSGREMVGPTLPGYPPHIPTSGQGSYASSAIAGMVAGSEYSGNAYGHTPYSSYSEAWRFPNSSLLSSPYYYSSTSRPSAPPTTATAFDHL

## CN(C)CCNC(=O)c1cc2c(s1)-c1ccc(Cl)cc1SC2
BJ [1]
  EC50: 4.54 µM (active)
[2]
  AC50: 11 µM (active)
[3]
  EC50: 9.06 µM (active)
BJ [4]
  EC50: 5.57 µM (inconclusive)
[5]
  AC50: 29.3 µM (active)
BJ [6]
  EC50: 2.18 µM (active)
[7]
  EC50: > 120 µM (not active)
[8]
  IC50: 6.25 µM (active)
[9]
  AC50: 60.8 µM (active)
[10]
  IC50: > 20 µM (inactive)
[11]
  EC50: 5.06 µM (active)
[12]
  EC50: 13.5 µM (active)
Paired box protein Pax-8
  AC50: 9.29 µM (active)
[13]
  AC50: 8.31 µM (active)
BJ [14]
  EC50: 5.2 µM (inconclusive)

## CN1C(=O)c2cc(NC(=O)c3cccc(C(F)(F)F)c3)ccc2OC[C@H]2O[C@H](CC(=O)NCCN3CCCC3)CC[C@H]21
[15]
  AC50: 38.9 µM (active)

## O=C1C=C(c2cccc(Cl)c2O)C[C@@H](c2ccc3c(c2)OCO3)C1
[16]
  IC50: 1.93 µM (active)
[17]
  IC50: 0.993 µM (active)
